Measurements reported in patent publication US20100144708A1, “HETEROCYCLIC COMPOUNDS CONTAINING NITROGEN ATOMS OR PHARMACEUTICALLY ACCEPTABLE SALTS THEREOF, PROCESS FOR THE PREPARATION THEREOF AND PHARMACEUTICAL COMPOSITION COMPRISING THE SAME FOR TREATMENT OF CANCER” (Korea Research Instititute of Bioscience and Biotechnology, priority 2006, published 2010).

Legend:
Format in all cases: cell-based, Human
[1] = test system: MBA-MB-231 (breast cancer); assay: Test for inhibition of tumor cell growth (SRB), MBA-MB-231; details: 48 hours, SRB staining; for GI50: Homo sapiens
Protocol: (§1) Human tumor cell lines, PC-3 (prostate cancer, ATCC, USA), MBA-MB-231 (breast cancer, ATCC, USA), ACHN (kidney cancer, ATCC, USA), and NUGC-3 (gastric cancer, ATCC, USA) were cultured in RPMI 1640 media containing 10% fetal bovine serum (FBS).
(§2) In order to measure anticancer activity, a suitable concentration of cells in RPMI 1640 media containing 5% fetal bovine serum (about 5×10^4 cells/□) was aliquotted in 96-well plates, and cultured in 5% CO2 at 37° C. On day one after aliquoting the cells, before the cells were treated with the compounds, in order to determine their concentration, 50[…] of 50% trichloroacetic acid was added to each well of time zero (T0) plate, and cells were fixed to determine zero point. The cells treated with the compounds were fixed on each well having 50[…] of 50% trichloroacetic acid after 48 hours. The final concentrations of the test compounds were 0.01, 0.03, 0.1, 0.3, and 1[…]/□. The fixed plate was washed with water and dried, and then 100[…] of 0.4% sulphorhodamine B (SRB) dissolved in 0.1% acetic acid was added to the each well to stain the cells. The plate was allowed to stand for 30 minutes, and then washed with 0.1% acetic acid. Then, the plate was dried at room temperature, and treated with 10 mM tris base (pH 10.5) to dissolve staining reagent. An absorbance measured at 540 nm was calculated as a percentage of the control group, and then the concentration of the compound that inhibited tumor cell growth (GI50(□/□)) by 50% was determined.

PC-3 (prostate cancer) = assay: Test for inhibition of tumor cell growth (SRB), PC-3; details: 48 hours, SRB staining; for GI50: Homo sapiens, read-out: GI50 PC-3 (prostate ancer)
Protocol: as §1, §2

ACHN (kidney cancer) = assay: Test for inhibition of tumor cell growth (SRB), ACHN; details: 48 hours, SRB staining; for GI50: Homo sapiens, ACHN
Protocol: as §1, §2

NUGC-3 (gastric cancer) = assay: Test for inhibition of tumor cell growth (SRB), NUGC-3; details: 48 hours, SRB staining; for GI50: Homo sapiens, NUGC-3
Protocol: as §1, §2

SMILES | GI50 [1] | GI50 (PC-3 (prostate cancer)) | GI50 (ACHN (kidney cancer)) | GI50 (NUGC-3 (gastric cancer)) | GI50 MBA-MB-231 (breast cancer) [1] | GI50 PC-3 (prostate ancer) (PC-3 (prostate cancer)) | GI50 ACHN (kidney cancer) (ACHN (kidney cancer)) | GI50 NUGC-3 (gastric cancer) (NUGC-3 (gastric cancer))
CCCCCCCCCCCCCCCCCCCC(=O)N1CC[N+](C)(C)CC1 [Example 31, 4-icosanoyl-1,1-dimethylpiperazin-1-ium iodide] | 1.63 µg/mL | 0.31 µg/mL | 1.39 µg/mL | 0.42 µg/mL | – | – | – | –
CCCCCCCCCCCCCCCCCCCC(=O)N1CC[N+](C)(Cc2ccccc2)CC1 [Example 32, 1-benzyl-4-icosanoyl-1-methylpiperazin-1-ium bromide] | 1.66 µg/mL | 0.59 µg/mL | 1.89 µg/mL | 1.1 µg/mL | – | – | – | –
C=CC[N+]1(C)CCN(C(=O)CCCCCCCCCCCCCCCCCCC)CC1 [Example 33, 1-allyl-4-icosanoyl-1-methylpiperazin-1-ium bromide] | > 10 µg/mL | 4.29 µg/mL | > 10 µg/mL | 3.45 µg/mL | – | – | – | –
CCCCCCCCCCCCCCCCCCCCCC(=O)N1CC[N+](C)(CC)CC1 [Example 34, 4-docosanoyl-1-ethyl-1-methylpiperazin-1-ium iodide] | 2.01 µg/mL | 0.85 µg/mL | 1.9 µg/mL | 1.22 µg/mL | – | – | – | –
CCCCCCCCCCCCCCCCCCCCCC(=O)N1CC[N+](C)(Cc2ccccc2)CC1 [Example 35, 1-benzyl-4-docosanoyl-1-methylpiperazin-1-ium bromide] | 1.98 µg/mL | 1.24 µg/mL | 4.74 µg/mL | 1.9 µg/mL | – | – | – | –
C=CC[N+]1(C)CCN(C(=O)CCCCCCCCCCCCCCCCCCCCC)CC1 [Example 36, 1-allyl-4-docosanoyl-1-methylpiperazin-1-ium bromide] | 3.16 µg/mL | 0.96 µg/mL | 2.37 µg/mL | 1.53 µg/mL | – | – | – | –
CCCCCCCCCCCCCCCCCCCCCC(=O)N1CC[N+](CC)(Cc2ccccc2)CC1 [Example 37, 1-benzyl-4-docosanoyl-1-ethylpiperazin-1-ium bromide] | > 10 µg/mL | > 10 µg/mL | > 10 µg/mL | > 10 µg/mL | – | – | – | –
C=CC[N+]1(CC)CCN(C(=O)CCCCCCCCCCCCCCCCCCCCC)CC1 [Example 38, 1-allyl-4-docosanoyl-1-ethylpiperazin-1-ium bromide] | 2.53 µg/mL | 1.47 µg/mL | 3.38 µg/mL | 1.54 µg/mL | – | – | – | –
CCCCCCCCCCCCCCCCCCCCCCCC(=O)N1CC[N+](C)(Cc2ccccc2)CC1 [Example 40, 1-benzyl-1-methyl-4-tetracosanoylpiperazin-1-ium bromide] | > 10 µg/mL | 4.79 µg/mL | > 10 µg/mL | > 10 µg/mL | – | – | – | –
C=CC[N+]1(C)CCN(C(=O)CCCCCCCCCCCCCCCCCCCCCCC)CC1 [Example 41, 1-allyl-1-methyl-4-tetracosanoylpiperazin-1-ium bromide] | > 10 µg/mL | 3.36 µg/mL | > 10 µg/mL | > 10 µg/mL | – | – | – | –
CCCCCCCCCCCCCCCCCCCCCCCC(=O)N1CC[N+](C)(CC)CC1 [Example 42, 1-ethyl-1-methyl-4-tetracosanoylpiperazin-1-ium iodide] | > 10 µg/mL | 3.77 µg/mL | > 10 µg/mL | > 10 µg/mL | – | – | – | –
C=CCCCCCCCCC(=O)N1CC[N+](C)(CC=C)CC1 [Example 43, 1-allyl-1-methyl-4-undec-10-enoyl-piperazin-1-ium bromide] | > 10 µg/mL | 1.32 µg/mL | > 10 µg/mL | > 10 µg/mL | – | – | – | –
CCCCCCCCCCCC(=O)N1CC[N+](CC)(Cc2cccc(F)c2)CC1.[Br-] [Example 54] | – | – | – | – | 4.71 µg/mL | 0.53 µg/mL | 3.78 µg/mL | 1.61 µg/mL

Now from value to compound, other results behind:

GI50 [1] | GI50 (PC-3 (prostate cancer)) | GI50 (ACHN (kidney cancer)) | GI50 (NUGC-3 (gastric cancer)) | SMILES | GI50 MBA-MB-231 (breast cancer) [1] | GI50 PC-3 (prostate ancer) (PC-3 (prostate cancer)) | GI50 ACHN (kidney cancer) (ACHN (kidney cancer)) | GI50 NUGC-3 (gastric cancer) (NUGC-3 (gastric cancer))
> 10 µg/mL | 0.41 µg/mL | > 10 µg/mL | > 10 µg/mL | C=CCCCCCCCCC(=O)N1CC[N+](C)(Cc2ccccc2)CC1 [Example 44, 1-benzyl-1-methyl-4-undec-10-enoyl-piperazin-1-ium bromide] | – | – | – | –
> 10 µg/mL | 2.02 µg/mL | > 10 µg/mL | > 10 µg/mL | C=CCCCCCCCCC(=O)N1CC[N+](C)(C)CC1 [Example 45, 1,1-dimethyl-4-undec-10-enoyl-piperazin-1-ium iodide] | – | – | – | –
> 10 µg/mL | 4.57 µg/mL | 5.13 µg/mL | 3.64 µg/mL | CCCCCCCCCCCCCCCC(=O)N1CC[N+](CC)(Cc2cccc([N+](=O)[O-])c2)CC1 [Example 47, 1-ethyl-1-(3-nitrobenzyl)-4-palmitoylpiperazin-1-ium bromide] | – | – | – | –
1.49 µg/mL | 0.68 µg/mL | 1.43 µg/mL | 1.19 µg/mL | CCCCCCCCCCCCCCCCCC(=O)N1CC[N+](CC)(Cc2ccc(F)cc2)CC1 [Example 48, 1-ethyl-1-(4-fluorobenzyl)-4-stearoylpiperazin-1-ium bromide] | – | – | – | –
5.38 µg/mL | 3.14 µg/mL | 3.08 µg/mL | 3.63 µg/mL | CCCCCCCCCCCCCCCCCC(=O)N1CC[N+](CC)(Cc2cccc([N+](=O)[O-])c2)CC1 [Example 49, 1-ethyl-1-(3-nitrobenzyl)-4-stearoylpiperazin-1-ium bromide] | – | – | – | –
2.3 µg/mL | 0.95 µg/mL | 1.94 µg/mL | 2.49 µg/mL | CCCCCCCCCCCCCCCCCC(=O)N1CC[N+](CC)(Cc2ccc(Br)cc2)CC1 [Example 50, 1-(4-bromobenzyl)-1-ethyl-4-stearoylpiperazin-1-ium bromide] | – | – | – | –
1.42 µg/mL | 0.52 µg/mL | 1.85 µg/mL | 1.05 µg/mL | CCCCCCCCCCCCCC(=O)N1CC[N+](CC)(Cc2cccc(F)c2)CC1 [Example 51, 1-ethyl-1-(3-fluorobenzyl)-4-tetradecanoylpiperazin-1-ium bromide] | – | – | – | –
1.6 µg/mL | 0.51 µg/mL | 2.08 µg/mL | 0.88 µg/mL | CCCCCCCCCCCCCC(=O)N1CC[N+](CC)(Cc2cccc(C)c2)CC1 [Example 52, 1-ethyl-1-(3-methylbenzyl)-4-tetradecanoylpiperazin-1-ium bromide] | – | – | – | –
3.95 µg/mL | 0.57 µg/mL | 4.84 µg/mL | 3.52 µg/mL | CCCCCCCCCCCC(=O)N1CC[N+](CC)(Cc2cccc([N+](=O)[O-])c2)CC1 [Example 53, 4-dodecanoyl-1-ethyl-1-(3-nitrobenzyl)piperazin-1-ium bromide] | – | – | – | –
1.52 µg/mL | 0.63 µg/mL | 0.93 µg/mL | 0.46 µg/mL | CCCCCCCCCCCCCCCCCC(=O)N1CC[N+](CC)(Cc2cccc(C)c2)CC1 [Example 58, 1-ethyl-1-(3-methylbenzyl)-4-stearoylpiperazin-1-ium bromide] | – | – | – | –
2.05 µg/mL | 0.84 µg/mL | 1.07 µg/mL | 0.66 µg/mL | CCCCCCCCCCCCCCCCCCS(=O)(=O)N1CC[N+](C)(CC)CC1 [Example 59, 1-ethyl-1-methyl-4-(octadecane-1-sulfonyl)piperazin-1-ium iodide] | – | – | – | –
> 10 µg/mL | > 10 µg/mL | > 10 µg/mL | > 10 µg/mL | C=CC[N+]1(CC)CCN(S(=O)(=O)CCCCCCCC)CC1 [Example 60, 1-allyl-1-ethyl-4-(octane-1-sulfonyl)piperazin-1-ium bromide] | – | – | – | –
> 10 µg/mL | > 10 µg/mL | > 10 µg/mL | > 10 µg/mL | C=CC[N+]1(C)CCN(S(=O)(=O)CCCCCCCC)CC1 [Example 61, 1-allyl-1-methyl-4-(octane-1-sulfonyl)piperazin-1-ium bromide] | – | – | – | –
> 10 µg/mL | > 10 µg/mL | > 10 µg/mL | > 10 µg/mL | CCCCCCCCS(=O)(=O)N1CC[N+](C)(Cc2ccccc2)CC1 [Example 62, 1-benzyl-1-methyl-4-(octane-1-sulfonyl)piperazin-1-ium bromide] | – | – | – | –
2.07 µg/mL | 0.67 µg/mL | 1.43 µg/mL | 0.36 µg/mL | CCCCCCCCCCCS(=O)(=O)N1CC[N+](CC)(Cc2ccccc2)CC1 [Example 64, 1-benzyl-1-ethyl-4-(undecane-1-sulfonyl)piperazin-1-ium bromide] | – | – | – | –
0.82 µg/mL | 0.42 µg/mL | 1.16 µg/mL | 0.37 µg/mL | CCCCCCCCCCCS(=O)(=O)N1CC[N+](C)(Cc2ccccc2)CC1 [Example 65, 1-benzyl-1-methyl-4-(undecane-1-sulfonyl)piperazin-1-ium bromide] | – | – | – | –
1.47 µg/mL | 0.56 µg/mL | 1.24 µg/mL | 1.06 µg/mL | CCCCCCCCCCCS(=O)(=O)N1CC[N+](C)(Cc2ccc(F)cc2)CC1 [Example 66, 1-(4-fluorobenzyl)-1-methyl-4-(undecane-1-sulfonyl)piperazin-1-ium bromide] | – | – | – | –
1.05 µg/mL | 0.87 µg/mL | 0.51 µg/mL | 0.6 µg/mL | C=CC[N+]1(CC)CCN(S(=O)(=O)CCCCCCCCCCCCCC)CC1 [Example 67, 1-allyl-1-ethyl-4-(tetradecane-1-sulfonyl)piperazin-1-ium bromide] | – | – | – | –
